Assay results reported in paper PMC3214022, “Plasmodium falciparum Parasites Are Killed by a Transition State Analogue of Purine Nucleoside Phosphorylase in a Primate Animal Model” (PLoS ONE, 2011).

Assay: Weights, CBC, blood chemistry and signs of toxicity, Table S1 sheet PD-2 (infected Aotus, twice a day for seven days)
Format: in vivo, Aotus lemurinus lemurinus
Conditions: oral 10 mg/kg twice a day/7 days
Experimental: Laboratory bred Aotus lemurinus lemurinus monkeys (0.75–0.89 kg) were maintained as described. […] Blood samples were collected before the treatment started (t = 0), 0.05 h, 0.5 h, 1 h, 2 h, 6 h, 24 h, 48 h, and 6, 12 and 18 days after the first dose from each monkey and processed as described below. Pharmacokinetic parameters were calculated using PKSolver. For efficacy studies, Aotus monkeys were inoculated intravenously with 5×10^6 parasites of the FVO strain of P. falciparum in an approved treatment protocol. […] Parasitaemia was determined by Giemsa-stained thick blood smears prepared daily from the marginal ear vein [41]. Blood samples were collected from each monkey and transferred to tubes containing lithium heparin, centrifuged and both plasma and blood cells were frozen at −80 °C until analysis. Animals received a physical examination and blood chemistry profiles were monitored after treatment as described previously. Any monkey not responding appropriately to treatment was cured of its infection with mefloquine (40 mg kg^−1). […] The day of clearance is defined as the first of three consecutive days in which the thick blood films are parasite negative. The day of recrudescence is the first of three consecutive days of positive thick blood films after a period of clearance. Suppression is defined as a transient decrease in the parasite count post-treatment without clearance.

Nc1nc2c(CN3CC(O)C(CO)C3)c[nH]c2c(=O)[nH]1 (stereo not shown) [BCX4945, 4′-deaza-1′-aza-2′-deoxy-1′-(9-methylene)-Immucillin-G]
Mean Corpuscular Volume (25044 Male (ITM2), day 25): 86 fL
Mean Hemoglobin Content (25044 Male (ITM2), day 25): 32.1 g/dL
Mean Platelet Volume (25044 Male (ITM2), day 25): 12.7 fL
Monocytes (%) (25044 Male (ITM2), day 25): 9.5%
Monocytes (x 103/ul) (25044 Male (ITM2), day 25): 1.9 x 103/ul
Platelets (25044 Male (ITM2), day 25): 166000 µL⁻¹
Red Cell Distribution Width (25044 Male (ITM2), day 25): 22.2%
Reticulocytes (25044 Male (ITM2), day 25): 2.6%
WEIGHT (25044 Male (ITM2), day 25): 827 g
Blood Urea Nitrogen (25044 Male (ITM2), day -10): 11.3 mg/dL
Creatine (25044 Male (ITM2), day -10): 0.5 mg/dL
Erythrocytes (25044 Male (ITM2), day -10): 5.93e+06 µL⁻¹
Glutamate Pyruvate Transaminase (25044 Male (ITM2), day -10): 17.1 U/L
Granulocytes (%) (25044 Male (ITM2), day -10): 13.3%
Granulocytes (x 103/ul) (25044 Male (ITM2), day -10): 4.2 x 103/ul
Hematocrit (25044 Male (ITM2), day -10): 44.6%
Hemoglobin (25044 Male (ITM2), day -10): 15.8 g/dL
Leucocytes (25044 Male (ITM2), day -10): 31300 µL⁻¹
Lymphocytes (%) (25044 Male (ITM2), day -10): 76.1%
Lymphocytes (x 103/ul) (25044 Male (ITM2), day -10): 23.8 x 103/ul
Mean Corpuscular Hemoglobin (25044 Male (ITM2), day -10): 26.7 pg
Mean Corpuscular Volume (25044 Male (ITM2), day -10): 75.2 fL
Mean Hemoglobin Content (25044 Male (ITM2), day -10): 35.5 g/dL
Mean Platelet Volume (25044 Male (ITM2), day -10): 13.1 fL
Monocytes (%) (25044 Male (ITM2), day -10): 10.6%
Monocytes (x 103/ul) (25044 Male (ITM2), day -10): 3.3 x 103/ul
Platelets (25044 Male (ITM2), day -10): 236000 µL⁻¹
Red Cell Distribution Width (25044 Male (ITM2), day -10): 13%
Reticulocytes (25044 Male (ITM2), day -10): 1.2%
WEIGHT (25044 Male (ITM2), day -10): 814 g
Blood Urea Nitrogen (26027 Male (ITM3), day 8): 12.75 mg/dL
Creatine (26027 Male (ITM3), day 8): 0.5 mg/dL
Erythrocytes (26027 Male (ITM3), day 8): 4.51e+06 µL⁻¹
Glutamate Pyruvate Transaminase (26027 Male (ITM3), day 8): 28.1 U/L
Granulocytes (%) (26027 Male (ITM3), day 8): 18.4%
Granulocytes (x 103/ul) (26027 Male (ITM3), day 8): 2.2 x 103/ul
Hematocrit (26027 Male (ITM3), day 8): 36.2%
Hemoglobin (26027 Male (ITM3), day 8): 13.0 g/dL
Leucocytes (26027 Male (ITM3), day 8): 11800 µL⁻¹
Lymphocytes (%) (26027 Male (ITM3), day 8): 70.2%
Lymphocytes (x 103/ul) (26027 Male (ITM3), day 8): 8.3 x 103/ul
Mean Corpuscular Hemoglobin (26027 Male (ITM3), day 8): 28.9 pg
Mean Corpuscular Volume (26027 Male (ITM3), day 8): 80.2 fL
Mean Hemoglobin Content (26027 Male (ITM3), day 8): 36 g/dL
Mean Platelet Volume (26027 Male (ITM3), day 8): 11.7 fL
Monocytes (%) (26027 Male (ITM3), day 8): 11.4%
Monocytes (x 103/ul) (26027 Male (ITM3), day 8): 1.3 x 103/ul
Platelets (26027 Male (ITM3), day 8): 216000 µL⁻¹
Red Cell Distribution Width (26027 Male (ITM3), day 8): 11.8%
Reticulocytes (26027 Male (ITM3), day 8): 1.4%
WEIGHT (26027 Male (ITM3), day 8): 890 g
Blood Urea Nitrogen (26027 Male (ITM3), day 12): 12.9 mg/dL
Creatine (26027 Male (ITM3), day 12): 0.5 mg/dL
Erythrocytes (26027 Male (ITM3), day 12): 4.4e+06 µL⁻¹
Glutamate Pyruvate Transaminase (26027 Male (ITM3), day 12): 33.4 U/L
Granulocytes (%) (26027 Male (ITM3), day 12): 26.5%
Granulocytes (x 103/ul) (26027 Male (ITM3), day 12): 4.8 x 103/ul
Hematocrit (26027 Male (ITM3), day 12): 36.1%
Hemoglobin (26027 Male (ITM3), day 12): 13.1 g/dL
Leucocytes (26027 Male (ITM3), day 12): 18200 µL⁻¹
Lymphocytes (%) (26027 Male (ITM3), day 12): 67.6%
Lymphocytes (x 103/ul) (26027 Male (ITM3), day 12): 12.3 x 103/ul
Mean Corpuscular Hemoglobin (26027 Male (ITM3), day 12): 29.8 pg
Mean Corpuscular Volume (26027 Male (ITM3), day 12): 82.1 fL
Mean Hemoglobin Content (26027 Male (ITM3), day 12): 36.3 g/dL
Mean Platelet Volume (26027 Male (ITM3), day 12): 12.2 fL
Monocytes (%) (26027 Male (ITM3), day 12): 5.9%
Monocytes (x 103/ul) (26027 Male (ITM3), day 12): 1.1 x 103/ul
Platelets (26027 Male (ITM3), day 12): 339000 µL⁻¹
Red Cell Distribution Width (26027 Male (ITM3), day 12): 12.1%
Reticulocytes (26027 Male (ITM3), day 12): 2.6%
WEIGHT (26027 Male (ITM3), day 12): 890 g
Blood Urea Nitrogen (26027 Male (ITM3), day 15): 17.15 mg/dL
Creatine (26027 Male (ITM3), day 15): 0.512 mg/dL
Erythrocytes (26027 Male (ITM3), day 15): 4.77e+06 µL⁻¹
Glutamate Pyruvate Transaminase (26027 Male (ITM3), day 15): 27.1 U/L
Granulocytes (%) (26027 Male (ITM3), day 15): 32.6%
Granulocytes (x 103/ul) (26027 Male (ITM3), day 15): 4 x 103/ul
Hematocrit (26027 Male (ITM3), day 15): 40.6%
Hemoglobin (26027 Male (ITM3), day 15): 14.5 g/dL
Leucocytes (26027 Male (ITM3), day 15): 12200 µL⁻¹
Lymphocytes (%) (26027 Male (ITM3), day 15): 63%
Lymphocytes (x 103/ul) (26027 Male (ITM3), day 15): 7.7 x 103/ul
Mean Corpuscular Hemoglobin (26027 Male (ITM3), day 15): 30.4 pg
Mean Corpuscular Volume (26027 Male (ITM3), day 15): 85 fL
Mean Hemoglobin Content (26027 Male (ITM3), day 15): 35.8 g/dL
Monocytes (%) (26027 Male (ITM3), day 15): 4.4%
Monocytes (x 103/ul) (26027 Male (ITM3), day 15): 0.5 x 103/ul
Platelets (26027 Male (ITM3), day 15): 245000 µL⁻¹
Red Cell Distribution Width (26027 Male (ITM3), day 15): 18.5%
Reticulocytes (26027 Male (ITM3), day 15): 3.1%
